Results reported in ChEMBL document CHEMBL4346703, “Structure Overhaul Affords a Potent Purine PI3Kδ Inhibitor with Improved Tolerability” (J Med Chem, 2019).

Assays:
[1] = molecular target: PI3-kinase p110-alpha/p85-alpha (Homo sapiens, UniProt P42336); assay: Inhibition of N-terminal His6-tagged recombinant full length human p110alpha/untagged recombinant full length human p85alpha expressed in baculovirus infected Sf21 insect cells using PIP2 as substrate preincubated for 15 mins followed by substrate addition and measured after 1 hr by HTRF assay
[2] = molecular target: PI3-kinase p110-delta/p85-alpha (Homo sapiens, UniProt O00329); assay: Inhibition of N-terminal His6-tagged recombinant full length human p110delta/untagged recombinant full length human p85alpha expressed in baculovirus infected Sf21 insect cells using PIP2 as substrate preincubated for 15 mins followed by substrate addition and measured after 1 hr by HTRF assay
[3] = Inhibition of adenosine transporter in human HeLa cells assessed as reduction in [3H]adenosine uptake preincubated for 30 mins followed by [3H]adenosine addition and measured after 60 mins; type: ADME, cell-based
[4] = molecular target: T1, Phosphatidylinositol 4,5-bisphosphate 3-kinase catalytic subunit delta isoform (Homo sapiens, UniProt O00329); assay: Inhibition of PI3Kdelta in human Ramos cells assessed as reduction in anti-IgM-antibody-induced phosphorylation of AKT at Ser473 residue preincubated for 20 mins followed by anti-IgM antibody stimulation and measured after 30 mins by alphascreen assay; type: cell-based
T1 sequence (O00329 whole entry): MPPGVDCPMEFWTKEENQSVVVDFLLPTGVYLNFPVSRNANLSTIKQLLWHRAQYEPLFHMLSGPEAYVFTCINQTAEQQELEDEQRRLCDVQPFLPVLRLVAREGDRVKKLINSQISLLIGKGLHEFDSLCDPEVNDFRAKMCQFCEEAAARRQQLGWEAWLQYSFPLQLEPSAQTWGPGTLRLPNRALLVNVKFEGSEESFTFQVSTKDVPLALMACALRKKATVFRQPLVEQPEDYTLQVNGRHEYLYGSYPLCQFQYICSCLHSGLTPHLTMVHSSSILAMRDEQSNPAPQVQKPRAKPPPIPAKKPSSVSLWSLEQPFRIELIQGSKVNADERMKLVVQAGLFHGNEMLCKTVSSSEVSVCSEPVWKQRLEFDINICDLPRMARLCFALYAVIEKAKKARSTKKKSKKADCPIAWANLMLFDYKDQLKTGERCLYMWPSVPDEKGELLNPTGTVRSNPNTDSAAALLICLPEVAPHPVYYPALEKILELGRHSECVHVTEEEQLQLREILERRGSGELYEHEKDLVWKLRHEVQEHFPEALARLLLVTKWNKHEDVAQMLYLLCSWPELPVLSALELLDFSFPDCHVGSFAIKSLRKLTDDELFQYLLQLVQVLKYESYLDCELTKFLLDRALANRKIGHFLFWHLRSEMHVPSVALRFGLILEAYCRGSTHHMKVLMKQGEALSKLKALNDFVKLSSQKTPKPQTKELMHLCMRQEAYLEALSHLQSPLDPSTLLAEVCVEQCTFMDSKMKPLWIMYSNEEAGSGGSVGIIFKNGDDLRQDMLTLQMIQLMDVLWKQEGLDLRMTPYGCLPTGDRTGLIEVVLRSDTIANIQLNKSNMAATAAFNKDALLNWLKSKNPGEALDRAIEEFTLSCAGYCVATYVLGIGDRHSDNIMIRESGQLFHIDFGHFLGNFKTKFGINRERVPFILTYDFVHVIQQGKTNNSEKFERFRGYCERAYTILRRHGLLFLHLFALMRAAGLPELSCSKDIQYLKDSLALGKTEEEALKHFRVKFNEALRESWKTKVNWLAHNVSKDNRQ

Homo sapiens = organism: Homo sapiens; assay: Selectivity ratio of IC50 for N-terminal His6-tagged recombinant full length human p110alpha/untagged recombinant full length human p85alpha expressed in baculovirus infected Sf21 insect cells to IC50 for N-terminal His6-tagged recombinant full length human p110delta/untagged recombinant full length human p85alpha expressed in baculovirus infected Sf21 insect cells
[5] = molecular target: T1, Phosphatidylinositol 4,5-bisphosphate 3-kinase catalytic subunit delta isoform; assay: Inhibition of PI3Kdelta in human whole blood assessed as reduction in anti-CD79b antibody-induced CD69 expression preincubated for 60 mins followed by anti-CD79b antibody stimulation and measured after 3 hrs by FACS analysis; type: tissue-based
[6] = molecular target: T1, Phosphatidylinositol 4,5-bisphosphate 3-kinase catalytic subunit delta isoform; assay: Inhibition of PI3Kdelta in human whole blood assessed as reduction in antihuman IgE antibody-stimulated CD63 expression preincubated for 30 mins followed by antihuman IgE antibody stimulation and measured after 20 mins by FACS analysis; type: tissue-based
[7] = Volume of distribution in Wistar Han rat; type: ADME; conditions: in vivo
[8] = Unbound volume of distribution in Wistar Han rat; type: ADME; conditions: in vivo
[9] = Half-life in Wistar Han rat; type: ADME; conditions: in vivo
[10] = Protein binding in Wistar Han rat plasma; type: ADME, cell-free; conditions: read-out: PPB (converted)
[11] = Protein binding in human plasma; type: ADME, cell-free; conditions: read-out: PPB (converted)
[12] = Lipophilicity, log D of the compound; type: physicochemical; conditions: octanol/water
[13] = Plasma clearance in Wistar Han rat at 0.05 mg/kg; type: ADME, organism-based
[14] = Intrinsic clearance in Wistar Han rat at 0.05 mg/kg; type: ADME, organism-based; conditions: in vivo
Phosphodiesterase 1 = Phosphodiesterase 1 (Homo sapiens, UniProt P54750+Q01064+Q14123); assay: Inhibition of PDE1 (unknown origin); type: protein assay
[15] = molecular target: cGMP-dependent 3',5'-cyclic phosphodiesterase (Homo sapiens, UniProt O00408); assay: Inhibition of PDE2 (unknown origin)
Phosphodiesterase 3 = Phosphodiesterase 3 (Homo sapiens, UniProt Q14432+Q13370); assay: Inhibition of PDE3 (unknown origin); type: protein assay
Phosphodiesterase 4 = Phosphodiesterase 4 (Homo sapiens, UniProt P27815+Q08499+Q07343+Q08493); assay: Inhibition of PDE4 (unknown origin); type: protein assay
[16] = molecular target: cGMP-specific 3',5'-cyclic phosphodiesterase (Homo sapiens, UniProt O76074); assay: Inhibition of PDE5 (unknown origin)
Phosphodiesterase 6 = assay: Inhibition of PDE6 (unknown origin); type: protein assay, Homo sapiens
Phosphodiesterase 7 = Phosphodiesterase 7 (Homo sapiens, UniProt Q13946+Q9NP56); assay: Inhibition of PDE7 (unknown origin); type: protein assay
[17] = molecular target: High affinity cAMP-specific and IBMX-insensitive 3',5'-cyclic phosphodiesterase 8A (Homo sapiens, UniProt O60658); assay: Inhibition of PDE8 (unknown origin)
[18] = molecular target: High affinity cGMP-specific 3',5'-cyclic phosphodiesterase 9A (Homo sapiens, UniProt O76083); assay: Inhibition of PDE9 (unknown origin)
[19] = molecular target: cAMP and cAMP-inhibited cGMP 3',5'-cyclic phosphodiesterase 10A (Homo sapiens, UniProt Q9Y233); assay: Inhibition of PDE10 (unknown origin)
[20] = molecular target: Dual 3',5'-cyclic-AMP and -GMP phosphodiesterase 11A (Homo sapiens, UniProt Q9HCR9); assay: Inhibition of PDE11 (unknown origin)
Chain of Dual 3',5'-cyclic-AMP and -GMP phosphodiesterase 11A (Q9HCR9 whole entry): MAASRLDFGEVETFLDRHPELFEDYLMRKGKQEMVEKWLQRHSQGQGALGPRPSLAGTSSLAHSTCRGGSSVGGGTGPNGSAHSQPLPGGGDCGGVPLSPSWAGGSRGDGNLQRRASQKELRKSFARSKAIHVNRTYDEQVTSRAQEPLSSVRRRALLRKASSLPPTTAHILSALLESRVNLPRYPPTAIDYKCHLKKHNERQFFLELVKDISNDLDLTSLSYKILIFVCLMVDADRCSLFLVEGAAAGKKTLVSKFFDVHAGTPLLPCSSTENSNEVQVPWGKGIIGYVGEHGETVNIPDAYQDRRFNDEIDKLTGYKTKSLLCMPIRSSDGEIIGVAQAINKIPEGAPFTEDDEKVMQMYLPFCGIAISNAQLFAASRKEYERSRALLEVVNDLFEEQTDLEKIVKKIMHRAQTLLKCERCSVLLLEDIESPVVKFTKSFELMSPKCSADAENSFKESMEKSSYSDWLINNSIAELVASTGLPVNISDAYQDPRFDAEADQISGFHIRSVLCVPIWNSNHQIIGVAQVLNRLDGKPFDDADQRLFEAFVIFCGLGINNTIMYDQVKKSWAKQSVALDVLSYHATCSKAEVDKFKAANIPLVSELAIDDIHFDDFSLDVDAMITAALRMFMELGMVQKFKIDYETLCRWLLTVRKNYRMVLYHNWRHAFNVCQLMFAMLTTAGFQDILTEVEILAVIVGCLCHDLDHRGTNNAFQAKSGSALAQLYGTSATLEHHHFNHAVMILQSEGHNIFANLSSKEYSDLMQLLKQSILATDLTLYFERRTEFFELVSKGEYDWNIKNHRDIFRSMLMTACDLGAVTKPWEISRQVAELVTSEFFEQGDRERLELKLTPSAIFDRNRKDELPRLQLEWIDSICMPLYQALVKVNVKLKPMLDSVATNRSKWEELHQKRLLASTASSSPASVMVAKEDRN

Chain of PI3-kinase p110-delta/p85-alpha (P27986 whole entry, one chain of several): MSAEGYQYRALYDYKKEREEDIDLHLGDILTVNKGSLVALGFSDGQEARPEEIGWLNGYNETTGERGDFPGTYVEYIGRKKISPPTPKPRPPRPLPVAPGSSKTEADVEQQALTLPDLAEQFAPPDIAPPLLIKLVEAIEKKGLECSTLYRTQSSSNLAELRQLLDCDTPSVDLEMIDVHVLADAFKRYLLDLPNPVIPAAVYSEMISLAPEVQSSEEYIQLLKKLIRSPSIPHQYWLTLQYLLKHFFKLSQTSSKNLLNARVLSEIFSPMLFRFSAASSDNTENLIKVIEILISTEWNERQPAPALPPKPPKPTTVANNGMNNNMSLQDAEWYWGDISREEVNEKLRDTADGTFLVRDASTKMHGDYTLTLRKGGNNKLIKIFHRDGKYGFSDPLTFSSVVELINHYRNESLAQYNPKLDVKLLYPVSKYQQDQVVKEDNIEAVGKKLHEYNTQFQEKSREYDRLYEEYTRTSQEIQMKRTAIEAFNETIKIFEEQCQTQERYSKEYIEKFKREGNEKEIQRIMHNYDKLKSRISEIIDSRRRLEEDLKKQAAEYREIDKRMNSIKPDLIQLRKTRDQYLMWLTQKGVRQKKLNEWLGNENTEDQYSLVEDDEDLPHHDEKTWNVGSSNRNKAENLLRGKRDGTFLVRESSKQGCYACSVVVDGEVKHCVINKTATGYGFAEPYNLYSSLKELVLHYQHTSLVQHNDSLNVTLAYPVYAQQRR
Chain of PI3-kinase p110-alpha/p85-alpha (P27986 whole entry): as the sequence (P27986 whole entry, one chain of several) above
Chain of PI3-kinase p110-alpha/p85-alpha (P42336 whole entry): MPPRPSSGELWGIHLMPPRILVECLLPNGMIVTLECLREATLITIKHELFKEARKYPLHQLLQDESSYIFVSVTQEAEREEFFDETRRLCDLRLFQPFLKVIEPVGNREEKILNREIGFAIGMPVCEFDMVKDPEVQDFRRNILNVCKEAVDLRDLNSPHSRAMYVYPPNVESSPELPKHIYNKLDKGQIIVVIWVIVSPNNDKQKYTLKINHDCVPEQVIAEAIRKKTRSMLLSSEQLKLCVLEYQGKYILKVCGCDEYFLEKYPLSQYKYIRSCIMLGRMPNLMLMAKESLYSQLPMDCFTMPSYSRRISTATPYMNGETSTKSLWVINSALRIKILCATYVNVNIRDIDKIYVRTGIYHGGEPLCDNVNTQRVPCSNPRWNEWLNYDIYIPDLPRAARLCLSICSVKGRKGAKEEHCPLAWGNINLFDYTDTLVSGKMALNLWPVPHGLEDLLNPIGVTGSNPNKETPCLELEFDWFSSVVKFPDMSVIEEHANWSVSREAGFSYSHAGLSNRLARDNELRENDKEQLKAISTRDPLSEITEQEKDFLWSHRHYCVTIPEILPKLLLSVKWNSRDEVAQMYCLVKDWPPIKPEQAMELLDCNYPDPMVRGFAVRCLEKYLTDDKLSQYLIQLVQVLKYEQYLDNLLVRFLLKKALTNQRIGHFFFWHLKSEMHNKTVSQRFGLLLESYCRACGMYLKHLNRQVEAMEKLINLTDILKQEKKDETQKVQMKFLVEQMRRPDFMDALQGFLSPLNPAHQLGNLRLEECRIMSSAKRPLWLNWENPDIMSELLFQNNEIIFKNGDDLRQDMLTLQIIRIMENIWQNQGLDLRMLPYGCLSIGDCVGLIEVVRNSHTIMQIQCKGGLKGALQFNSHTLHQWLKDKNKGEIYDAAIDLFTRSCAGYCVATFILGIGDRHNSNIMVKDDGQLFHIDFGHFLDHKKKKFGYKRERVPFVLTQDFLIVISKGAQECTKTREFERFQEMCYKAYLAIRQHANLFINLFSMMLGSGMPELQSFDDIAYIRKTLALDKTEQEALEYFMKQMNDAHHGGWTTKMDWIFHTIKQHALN
Chain of cAMP and cAMP-inhibited cGMP 3',5'-cyclic phosphodiesterase 10A (Q9Y233 whole entry): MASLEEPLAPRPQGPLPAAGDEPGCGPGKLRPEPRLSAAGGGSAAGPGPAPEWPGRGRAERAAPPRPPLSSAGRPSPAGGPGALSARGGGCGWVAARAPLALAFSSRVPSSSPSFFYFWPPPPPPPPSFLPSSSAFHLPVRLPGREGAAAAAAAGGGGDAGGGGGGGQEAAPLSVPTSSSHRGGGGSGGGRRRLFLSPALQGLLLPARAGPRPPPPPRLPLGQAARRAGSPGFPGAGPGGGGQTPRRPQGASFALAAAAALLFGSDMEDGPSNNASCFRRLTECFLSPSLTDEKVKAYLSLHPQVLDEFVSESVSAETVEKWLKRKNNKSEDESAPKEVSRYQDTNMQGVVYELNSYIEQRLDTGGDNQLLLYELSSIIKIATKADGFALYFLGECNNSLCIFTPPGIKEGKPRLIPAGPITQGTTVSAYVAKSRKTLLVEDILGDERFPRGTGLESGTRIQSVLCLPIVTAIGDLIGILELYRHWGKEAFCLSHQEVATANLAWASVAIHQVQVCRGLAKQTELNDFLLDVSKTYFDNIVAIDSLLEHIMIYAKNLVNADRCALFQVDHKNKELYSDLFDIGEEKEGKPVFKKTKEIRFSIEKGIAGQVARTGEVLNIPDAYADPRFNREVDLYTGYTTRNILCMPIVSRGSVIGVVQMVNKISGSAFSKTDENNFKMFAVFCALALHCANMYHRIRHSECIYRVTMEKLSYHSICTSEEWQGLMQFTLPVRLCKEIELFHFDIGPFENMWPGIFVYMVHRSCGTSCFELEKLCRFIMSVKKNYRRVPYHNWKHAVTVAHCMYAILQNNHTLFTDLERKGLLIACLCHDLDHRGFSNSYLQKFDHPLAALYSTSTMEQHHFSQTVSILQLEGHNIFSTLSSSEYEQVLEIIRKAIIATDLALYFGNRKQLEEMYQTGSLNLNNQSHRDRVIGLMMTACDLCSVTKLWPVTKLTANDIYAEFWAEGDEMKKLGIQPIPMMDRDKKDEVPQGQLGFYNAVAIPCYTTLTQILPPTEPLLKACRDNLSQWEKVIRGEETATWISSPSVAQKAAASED
Chain of High affinity cAMP-specific and IBMX-insensitive 3',5'-cyclic phosphodiesterase 8A (O60658 whole entry): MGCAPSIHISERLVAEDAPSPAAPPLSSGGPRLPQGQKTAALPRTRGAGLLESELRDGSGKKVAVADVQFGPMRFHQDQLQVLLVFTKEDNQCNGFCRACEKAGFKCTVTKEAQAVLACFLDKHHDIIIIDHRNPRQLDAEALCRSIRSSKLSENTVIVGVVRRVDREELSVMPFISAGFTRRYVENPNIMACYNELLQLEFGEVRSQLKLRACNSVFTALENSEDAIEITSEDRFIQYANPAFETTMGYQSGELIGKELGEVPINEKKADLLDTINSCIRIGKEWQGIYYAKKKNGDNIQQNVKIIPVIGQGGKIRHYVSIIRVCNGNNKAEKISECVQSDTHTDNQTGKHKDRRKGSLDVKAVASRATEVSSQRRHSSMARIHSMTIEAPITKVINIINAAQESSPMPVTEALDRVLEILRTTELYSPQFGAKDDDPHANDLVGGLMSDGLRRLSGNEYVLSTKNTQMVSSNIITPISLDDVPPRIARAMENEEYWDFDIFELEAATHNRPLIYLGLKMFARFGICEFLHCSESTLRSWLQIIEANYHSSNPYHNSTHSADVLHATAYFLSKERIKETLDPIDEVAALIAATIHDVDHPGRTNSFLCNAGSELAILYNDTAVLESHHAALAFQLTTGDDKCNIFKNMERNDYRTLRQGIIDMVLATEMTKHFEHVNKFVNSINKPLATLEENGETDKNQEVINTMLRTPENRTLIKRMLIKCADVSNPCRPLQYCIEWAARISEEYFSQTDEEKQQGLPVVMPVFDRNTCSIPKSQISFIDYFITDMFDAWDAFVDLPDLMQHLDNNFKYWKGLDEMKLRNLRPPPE

Row | IC50 [1] [nM] | IC50 [2] [nM] | IC50 [3] [nM] | IC50 [4] [nM] | SMILES | other results
1 | > 10000 | 1080 | > 10000 |  | CCn1ncc(-c2nc3c(N[C@H](C)C(=O)N4CCOCC4)ncnc3n2C)c1C | 
2 | 121 | 4.3 | 2250 | 45 | CCn1ncc(-c2nc3c(NC4CC(=O)N(CC(C)C)C4)ncnc3n2C)c1C (configuration not stated) | 
3 | 406 | 24 | 6550 | 719 | CCn1ncc(-c2nc3c(N[C@@H](C)C(=O)N4CCOCC4)ncnc3n2C)c1C | 
4 | 2950 | 68 | 4500 | 970 | CCn1ncc(-c2nc3c(Oc4csc(C(=O)N5CCOCC5)c4)ncnc3n2C)c1C | 
5 | 90 | 11 | 5520 | 153 | CCn1ncc(-c2nc3c(N[C@H]4CC[C@@H](C(=O)N5CCOCC5)C4)ncnc3n2C)c1C | 
6 | 904 |  | > 10000 | 2210 | CCC(=O)N1CC(Nc2ncnc3c2nc(-c2cnn(CC)c2C)n3C)C1 | Ratio IC50 (Homo sapiens): 16
7 | 1780 | 1350 | 7150 | 8330 | CCn1ncc(-c2nc3c(NC4CCN(CC(C)C)C4=O)ncnc3n2C)c1C (racemic) | 
8 | 35 | 0.9 | 1590 | 13 | CCn1ncc(-c2nc3c(N[C@H]4CCN(C(=O)C5CC5)C4)ncnc3n2C)c1C | IC50 [5]: 35 nM; IC50 [6]: 330 nM; Vd [7]: 1.1 L/kg; Vdu [8]: 4 L/kg; half-life [9]: 18 min; fraction unbound [10]: 0.28; fraction unbound [11]: 0.45; logD [12]: 1; clearance [13]: 49 mL/min/kg; CL [14]: 410 mL/min/kg
9 | 94 | 1.6 | 7250 | 24 | CCC(=O)N1CC[C@H](Nc2ncnc3c2nc(-c2cnn(CC)c2C)n3C)C1 | IC50 (Phosphodiesterase 1): > 20000 nM; IC50 [15]: > 20000 nM; IC50 (Phosphodiesterase 3): > 20000 nM; IC50 (Phosphodiesterase 4): 8400 nM; IC50 [16]: > 20000 nM; IC50 (Phosphodiesterase 6): > 20000 nM; IC50 (Phosphodiesterase 7): > 20000 nM; IC50 [17]: > 20000 nM; IC50 [18]: > 20000 nM; IC50 [19]: > 20000 nM; IC50 [20]: > 20000 nM; Vd [7]: 1.8 L/kg; Vdu [8]: 4 L/kg; half-life [9]: 24 min; fraction unbound [10]: 0.49; logD [12]: 0.8; clearance [13]: 58 mL/min/kg; CL [14]: 370 mL/min/kg
10 | 597 | 15 | 1400 | 572 | CCn1ncc(-c2nc3c(S[C@H]4CCN(C(=O)C5CCOCC5)C4)ncnc3n2C)c1C | 
